Seven compounds from patent publication US9169241B2, “Quinolinyloxyphenylsulfonamides” (Max-Planck-Gesellschaft Zur Forderung der Wissenschaften …, priority 2009, dated 2015) can be followed below.

Holding throughout (format): cell-based
In one test the test system is C8161. Briefly: Apoptosis assay (Cellomics, nucleus condensation). The following applies: Homo sapiens, Table III, read-out: Apoptosis induction in C8161. In a few lines: (§1)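 5000 cells/well, Hoechst 33342 live stain; cpd 12.5, 6.25, 3.125, 1.56, 0.78, 0.39 μM or DMSO; imaged 24 h + 48 h; nuclear condensation = intensity variation per nucleus; cell number loss noted.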

For a further test, the system named is SF763. Briefly: Apoptosis assay (Cellomics, nucleus condensation). The following applies: Table III, read-out: Apoptosis induction in SF763. In a few lines:
as §1

The subject of the next test is U138. Briefly: Apoptosis assay (Cellomics, nucleus condensation). The following applies: Table III, read-out: Apoptosis induction in U138. In short, it runs like this:
as §1

The next test deals with SF126. Briefly: Apoptosis assay (Cellomics, nucleus condensation). The note with it: Homo sapiens, SF-126, Table III, read-out: Apoptosis induction in SF126. In short, it runs like this: as §1
The subject of the next test is U118. Briefly: Apoptosis assay (Cellomics, nucleus condensation). The note with it: Table III, read-out: Apoptosis induction in U118. In short, it runs like this:
as §1

In another test the test system is Hs578T. Briefly: Apoptosis assay (Cellomics, nucleus condensation). The following applies: Homo sapiens, Hs-578T, Table III, read-out: Apoptosis induction in Hs578T. In short, it runs like this: as §1
Another test relates to cells. Briefly: Boyden chamber migration assay (Table VI). The note with it: Homo sapiens, Hs-578T, 16 h, Hs578T cells; 16 h migration. In short, it runs like this: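 20000 cells seeded in the upper compartment in 0% FCS plus 0.1% BSA and left 16 h to migrate through […] membrane toward 10% FCS medium below. Non-migrated cells swabbed off; cells on the filter underside fixed and counted.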

The next test has as its system viable cells in culture. Briefly: Cell viability assay at 10 μM (CellTiter-Glo, Table VII).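 Also: graded A 0-20%; B 21-40%; C 41-60%; D over 60% viable cells relative to DMSO control.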 The note with it: compound 10 μM, 72 h. In short, it runs like this: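 Viable cell number was measured with the CellTiter-Glo Luminescent Cell Viability Assay (Promega), following the manufacturer's protocol, which quantifies ATP as a marker of metabolically active cells. In 96-well plates, 1000 cells/well in 100 μl medium were exposed to compound at 10 μM, or to DMSO control, for 72 h. Values were calculated relative to DMSO-control ATP.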

The mark [1] stands for this setting: Homo sapiens, HCT-116, HCT116 def, read-out: percentage (%) of viable cells HCT 116def.
[2] abbreviates: Homo sapiens, HCT-116, HCT116 wt, read-out: percentage (%) of viable cells HCT 116wt.
[3] abbreviates: Homo sapiens, HT-29, HT29, read-out: percentage (%) of viable cells HT29.
Setting [4] is: Homo sapiens, NCI-H358, H358, read-out: percentage (%) of viable cells H358.
[5] abbreviates: Homo sapiens, NCI-H1650, H1650, read-out: percentage (%) of viable cells H1650.
The mark [6] stands for this setting: Homo sapiens, NCI-H1666, H1666, read-out: percentage (%) of viable cells H1666.
Setting [7] is: Homo sapiens, NCI-H1975, H1975, read-out: percentage (%) of viable cells H1975.
[8] abbreviates: Homo sapiens, NCI-H1993, H1993, read-out: percentage (%) of viable cells H1993.
The mark [9] stands for this setting: Homo sapiens, A549, read-out: percentage (%) of viable cells A549.
[10] abbreviates: Homo sapiens, HCC827, read-out: percentage (%) of viable cells HCC827.
Setting [11] is: Homo sapiens, SW480, read-out: percentage (%) of viable cells SW480.
The mark [12] stands for this setting: RKO, read-out: percentage (%) of viable cells RKO.

Like-named read-outs stand apart in the source and are kept apart here.

With `COc1cc2c(Oc3ccc(NS(=O)(=O)c4cc(Cl)cc(Cl)c4OC)cc3F)ccnc2cc1OCCCN1CCCCC1` [Example 34, 3,5-Dichloro-N-{3-fluoro-4-[6-methoxy-7-(3-piperidin-1-yl-propoxy)-quinolin-4-yloxy]-phenyl}-2-methoxy-benzenesulfonamide], the IC50 with C8161 was at most 12.5 µM; with SF763, at most 12.5 µM; with U138 it was at most 12.5 µM; with SF126, at most 12.5 µM; with U118 it was at most 12.5 µM; in the test on Hs578T, 12.5 to 50 µM. The compound also yielded an IC50 with cells of at most 5 µM. The viability at 10 µM in the test on viable cells in culture (setting [1]) was in the range of 21 to 40%; in the test on viable cells in culture (setting [2]), 0 to 20%; with viable cells in culture (setting [3]) it was 21 to 40%; with viable cells in culture (setting [4]), 0 to 20%; in the test on viable cells in culture (setting [5]) it was 21 to 40%; in the test with viable cells in culture (setting [6]), 21 to 40%. Further, the viability at 10 µM is 0 to 20% in the test with viable cells in culture (setting [7]); 0 to 20% in the test on viable cells in culture (setting [8]); over 60% in the test on viable cells in culture (setting [9]); over 60% in the test on viable cells in culture (setting [10]); 0 to 20% with viable cells in culture (setting [11]); 0 to 20% in the test on viable cells in culture (setting [12]).
Consider `COc1cc2c(Oc3ccc(NS(=O)(=O)c4cc(Cl)cc(Cl)c4OC)cc3F)ccnc2cc1OCCCN1CCN(C)CC1` [Example 35, 3,5-Dichloro-N-(3-fluoro-4-{6-methoxy-7-[3-(4-methyl-piperazin-1-yl)-propoxy]-quinolin-4-yloxy}-phenyl)-2-methoxy-benzenesulfonamide], for which the IC50 in the test with C8161 was at most 12.5 µM; in the test with SF763, at most 12.5 µM; in the test on U138, 12.5 to 50 µM; with SF126, at most 12.5 µM; with U118, at most 12.5 µM; in the test on Hs578T, at most 12.5 µM. In the test on cells, this compound came in with an IC50 of at most 5 µM. Also, the viability at 10 µM in the test on viable cells in culture (setting [1]) lay in the range of 21 to 40%; in the test on viable cells in culture (setting [2]), 0 to 20%; with viable cells in culture (setting [3]), 0 to 20%; with viable cells in culture (setting [4]), 0 to 20%; with viable cells in culture (setting [5]) it was 21 to 40%; in the test with viable cells in culture (setting [6]), 21 to 40%. The viability at 10 µM in the test on viable cells in culture (setting [7]) was 0 to 20%; in the test with viable cells in culture (setting [8]), 21 to 40%; with viable cells in culture (setting [9]), over 60%; in the test on viable cells in culture (setting [10]) it was 41 to 60%; with viable cells in culture (setting [11]), 0 to 20%; with viable cells in culture (setting [12]) it was 41 to 60%.
For `COc1cc2c(Oc3ccc(NS(=O)(=O)c4ccc(F)c(Cl)c4)cc3F)ccnc2cc1OCCCN1CCCC(C)C1` (stereo not shown) [Example 57, 3-Chloro-4-fluoro-N-(3-fluoro-4-{6-methoxy-7-[3-(3-methyl-piperidin-1-yl)-propoxy]-quinolin-4-yloxy}-phenyl)-benzenesulfonamide], the IC50 with C8161 was at most 12.5 µM; with SF763, 12.5 to 50 µM; in the test on U138, at most 12.5 µM; in the test with SF126, at most 12.5 µM; in the test on U118, at most 12.5 µM; with Hs578T, at most 12.5 µM. In the test with cells, the IC50 was in the range of 5 to 50 µM. Besides, the viability at 10 µM with viable cells in culture (setting [1]) was 21 to 40%; with viable cells in culture (setting [2]) it was over 60%; in the test on viable cells in culture (setting [3]), 0 to 20%; in the test with viable cells in culture (setting [4]), 21 to 40%; in the test with viable cells in culture (setting [5]), 41 to 60%; in the test with viable cells in culture (setting [6]), 41 to 60%. In addition, the viability at 10 µM is 0 to 20% in the test with viable cells in culture (setting [7]); 21 to 40% in the test with viable cells in culture (setting [8]); over 60% in the test with viable cells in culture (setting [9]); over 60% in the test on viable cells in culture (setting [10]); 0 to 20% in the test on viable cells in culture (setting [11]); 0 to 20% with viable cells in culture (setting [12]).
`COc1cc2c(Oc3ccc(NS(=O)(=O)c4cccc5ccccc45)cc3F)ccnc2cc1OCCCN1CCCC(C)C1` (stereo not shown) [Example 58, Naphthalene-1-sulfonic acid (3-fluoro-4-{6-methoxy-7-[3-(3-methyl-piperidin-1-yl)-propoxy]-quinolin-4-yloxy}-phenyl)-amide]: the IC50 with C8161 was at most 12.5 µM; in the test with SF763, at most 12.5 µM; in the test on U138 it was at most 12.5 µM; in the test with SF126 it was at most 12.5 µM; in the test with U118 it was 12.5 to 50 µM; in the test on Hs578T, 12.5 to 50 µM. The same compound had an IC50 in the test on cells of at most 5 µM. In addition, the viability at 10 µM in the test with viable cells in culture (setting [1]) was 21 to 40%; with viable cells in culture (setting [2]) it was 0 to 20%; in the test with viable cells in culture (setting [3]) it was 0 to 20%; in the test with viable cells in culture (setting [4]), 21 to 40%; in the test on viable cells in culture (setting [5]) it was over 60%; with viable cells in culture (setting [6]), 21 to 40%. Also, the viability at 10 µM in the test with viable cells in culture (setting [7]) is 0 to 20%; with viable cells in culture (setting [8]) it was 41 to 60%; with viable cells in culture (setting [9]) it was 41 to 60%; in the test with viable cells in culture (setting [10]), over 60%; in the test on viable cells in culture (setting [11]), 0 to 20%; with viable cells in culture (setting [12]) it was 0 to 20%.
For the compound `COc1cc2c(Oc3ccc(NS(=O)(=O)c4ccccc4F)cc3F)ccnc2cc1OCCN1CCOCC1` [Example 81, 2-Fluoro-N-{3-fluoro-4-[6-methoxy-7-(2-morpholin-4-yl-ethoxy)-quinolin-4-yloxy]-phenyl}-benzenesulfonamide], the IC50 in the test on C8161, in the test with SF763, in the test with U138, in the test with SF126, in the test on U118 and in the test with Hs578T was at most 12.5 µM in each case. Also, the IC50 in the test on cells is at most 5 µM. Moreover, the viability at 10 µM with viable cells in culture (setting [1]) was in the range of 21 to 40%; with viable cells in culture (setting [2]) it was 21 to 40%; in the test on viable cells in culture (setting [3]) it was 21 to 40%; in the test with viable cells in culture (setting [4]), 0 to 20%; in the test on viable cells in culture (setting [5]), 21 to 40%; with viable cells in culture (setting [6]) it was 21 to 40%. Also, the viability at 10 µM with viable cells in culture (setting [7]) fell in the range of 0 to 20%; in the test with viable cells in culture (setting [8]) it was 21 to 40%; with viable cells in culture (setting [9]), 41 to 60%; in the test with viable cells in culture (setting [10]) it was 0 to 20%; in the test with viable cells in culture (setting [11]) it was 0 to 20%; with viable cells in culture (setting [12]) it was 41 to 60%.
On to `COc1cc2c(Oc3ccc(NS(=O)(=O)c4c(F)cccc4F)cc3F)ccnc2cc1OCCN1CCOCC1` [Example 82, 2,6-Difluoro-N-{3-fluoro-4-[6-methoxy-7-(2-morpholin-4-yl-ethoxy)-quinolin-4-yloxy]-phenyl}-benzenesulfonamide], for which the IC50 in the test on C8161, with SF763, with U138, with SF126, with U118 and with Hs578T was at most 12.5 µM throughout. Besides, in the test on cells, the IC50 was in the range of 5 to 50 µM. Besides, the viability at 10 µM in the test on viable cells in culture (setting [1]) was in the range of 21 to 40%; in the test on viable cells in culture (setting [2]), 0 to 20%; in the test with viable cells in culture (setting [3]), 0 to 20%; with viable cells in culture (setting [4]), 21 to 40%; in the test with viable cells in culture (setting [5]) it was 21 to 40%; with viable cells in culture (setting [6]), 41 to 60%. For the same compound, the viability at 10 µM was 21 to 40% in the test with viable cells in culture (setting [7]); 0 to 20% in the test with viable cells in culture (setting [8]); over 60% with viable cells in culture (setting [9]); 21 to 40% in the test on viable cells in culture (setting [10]); 21 to 40% with viable cells in culture (setting [11]); 41 to 60% with viable cells in culture (setting [12]).
Consider `COc1cc2c(Oc3cccc(NS(=O)(=O)c4ccccc4C(F)(F)F)c3)ccnc2cc1OCCCN1CCN(C)CC1` [Example 102, N-(3-{6-Methoxy-7-[3-(4-methyl-piperazin-1-yl)-propoxy]-quinolin-4-yloxy}-phenyl)-2-trifluoromethyl-benzenesulfonamide], for which the IC50 in the test with C8161, in the test with SF763, with U138, with SF126, in the test on U118 and in the test with Hs578T was at most 12.5 µM throughout. Further, the IC50 with cells was at most 5 µM. Also, the viability at 10 µM fell in the range of 0 to 20% in the test with viable cells in culture (setting [1]); 0 to 20% in the test with viable cells in culture (setting [2]); 0 to 20% in the test on viable cells in culture (setting [3]); 0 to 20% in the test on viable cells in culture (setting [4]); 41 to 60% in the test on viable cells in culture (setting [5]); 41 to 60% in the test on viable cells in culture (setting [6]). In addition, the viability at 10 µM with viable cells in culture (setting [7]) fell in the range of 21 to 40%; with viable cells in culture (setting [8]), 21 to 40%; in the test on viable cells in culture (setting [9]), 41 to 60%; with viable cells in culture (setting [10]), 21 to 40%; in the test on viable cells in culture (setting [11]), 0 to 20%; in the test on viable cells in culture (setting [12]), 21 to 40%.
